# Laboratory results as given in patent US20240043419A1, “CLASS OF 1,7-NAPHTHYRIDINE COMPOUNDS AND APPLICATION THEREOF” (Medshine Discovery Inc., priority 2020, published 2024).
# How the values were obtained:
# [1] = system: subcutaneous xenograft tumor of human colorectal cancer LoVo cells; assay: In vivo pharmacodynamics on subcutaneous xenograft tumor of human colorectal cancer LoVo cells in BALB/c nude mouse model; set-up: species or system BALB/c nude mice; settings: oral 40 mg/kg, twice a day, 4 days on and 3 days rest per week, 21 days of administration
# Method: In this assay, the inhibitory effect of the compound of the present disclosure on the growth of subcutaneous xenograft tumor of human colorectal cancer LoVo cells was studied at an oral dosage of 40 mg/kg, twice a day, with 4 consecutive days of administration and 3 days of rest per week.
# Assay method: The selected assay animals (provided by Shanghai Sippe-Bk Lab Animal Co., Ltd.) were BALB/c nude mice, 6-8 weeks old, weighing 18-22 grams.
# Human colon cancer LoVo cells were cultured in a single layer in vitro with a culture condition of Ham's F-12 medium plus 10% fetal bovine serum, 100 U/mL penicillin, 100 μg/mL streptomycin and 2 mM glutamine, 37° C., 5% CO2. Cells were routinely digested and passaged with trypsin-EDTA twice a week. When the cell saturation was 80%-90%, the cells were collected, counted and inoculated. 0.1 mL (10×10^6 cells) of LoVo cells were subcutaneously inoculated on the right back of each nude mouse, and the mice were grouped and administered when the average tumor volume reached 146 mm^3. Tumor diameters were measured twice a week with vernier calipers. The calculation formula of tumor volume was: V=0.5 a×b^2, wherein a and b represent the long and short diameters of tumor, respectively.
# The antitumor efficacy of the compound was evaluated by TGI (%) or relative tumor proliferation rate T/C (%). TGI (%) reflected the inhibition rate of tumor growth. […]
# [2] = system: tumor cell line LoVo; assay: in vitro LoVo cell proliferation inhibition assay (CellTiter-Glo cell viability); assay type: cell-based; settings: Homo sapiens, LoVo cells
# Method: In this assay, the effect of the compounds on inhibiting cell proliferation was studied by detecting the effect of the compounds on the cell viability in vitro in the tumor cell line LoVo.
# Cell viability detection using CellTiter-Glo luminescence assay
# The following steps were performed according to the instructions of the Promega CellTiter-Glo Luminescent Cell Viability Detection Kit (Promega-G7573).
# (1). A CellTiter-Glo buffer was thawed and allowed to stand to reach room temperature.
# (2). A CellTiter-Glo substrate was allowed to stand to reach room temperature.
# (3). The CellTiter-Glo buffer was added to the CellTiter-Glo substrate in a bottle to dissolve the substrate to formulate a CellTiter-Glo working solution.
# (4). The working solution was vortexed slowly for fully dissolution.
# (5). A cell culture plate was taken out and allowed to stand for 30 minutes to equilibrate to room temperature.
# (6). 50 μL (equal to half the volume of cell culture solution in each well) of the CellTiter-Glo working solution was added into each well. The cell plate was wrapped with aluminum foil to protect the cell plate from light.
# (7). The culture plate was shaken on an orbital shaker for 2 minutes to induce cell lysis.
# (8). The culture plate was left at room temperature for 10 minutes to stabilize luminescent signals.
# (9). The luminescent signals were detected on a plate reader (SpectraMax i3x of MolecμLar Devices).
# The inhibition rate (IR) of the assay compounds was calculated by the following formula:
# IR (%)=(1−(RLU of compound−RLU of blank control)/(RLU of vehicle control−RLU of blank control))*100%.
# The inhibition rates of different concentrations of compounds were calculated in Excel, and then GraphPad Prism software was used to draw inhibition curves and calculate relevant parameters, including the minimum inhibition rate, maximum inhibition rate, and IC50.
# [3] = Pharmacokinetics in vivo in mice, single intravenous or single oral administration, plasma LC-MS/MS; settings: mouse, female Balb/c Nude mice
# Method: The purpose of this assay is to study the pharmacokinetics of the compound of the present disclosure in the plasma of female Balb/c Nude mice after a single intravenous administration or a single oral administration.
# In the intravenous group, plasma samples were collected at 9 time points of 5 minutes, 15 minutes, 30 minutes, 1 hour, 2 hours, 4 hours, 6 hours, 8 hours and 24 hours after administration; in the oral group, plasma samples were collected at 8 time points of 15 minutes, 30 minutes, 1 hour, 2 hours, 4 hours, 6 hours, 8 hours and 24 hours after administration; the samples were analyzed by LC-MS/MS for the plasma concentration data of the compound of the present disclosure, and the pharmacokinetic parameters, such as peak concentration, time to peak, clearance rate, half-life, maximum plasma drug concentration, area under the drug-time curve were calculated.
# [4] = system: CHK1(p-Ser345); assay: Assay of CHK1(p-Ser345) in vitro: inhibition of CHK1 phosphorylation in HT29 cells after 4NQO, alpha screen; assay type: cell-based; settings: Homo sapiens, read-out: % Inhibition of CHKI phosphorylation; for inhibition at 0.0002 µM: HT-29, 0.2 nM compound; for inhibition at 0.025 µM: HT-29, 25 nM compound
# Method: The assay process was as follows: • 1) When cells HT29 grew to about 80% confluence, the cells were digested and plated on a 96-well plate (80,000 cells/well), and 90 ul of cell suspension was added to each well; the cell plate was placed in a 5% carbon dioxide, 37° C. incubator overnight; • 2) The next day, the supernatant was removed from the cell plate, and 90 ul of compounds with different concentrations were added; the plate was incubated at 37° C. for 1 hour, and then 10 ul of 7 uM 4NQO medium was added; the plate was incubated at 37° C. for 1 hour; • 3) After the incubation was completed, the supernatant was removed, and 50 ul/well cell lysate was added; the plate was shaken and incubated at room temperature for 50 minutes; • 4) After the incubation was completed, 8 ul/well cell lysate was transferred to a 384-well detection plate, and 5 ul of Acceptor was added; the plate was incubated at room temperature for 2 hours; • 5) Then 2 ul of Donor was added, and the plate was incubated at room temperature overnight; • 6) After the incubation was completed, alpha screen reading was performed.
SMILES,IC50 [2] [nM],inhibition at 0.0002 µM [4] [%],inhibition at 0.025 µM [4] [%],also measured
C[C@@H]1COCCN1c1cc(-c2ccnn2C)c2c(F)cnc(-c3ccn[nH]3)c2n1 [Example 1],64,10.8,98,"TGI (%) [1]: 92.4%; clearance ([3]; Intravenous injection (1 mg/kg), read-out: Clearance rate): 13.7 mL/min/kg; half-life ([3]; Intravenous injection (1 mg/kg), read-out: Half-life T1/2 (converted)): 31.7 min; AUC(0-t) ([3]; Oral (10 mg/kg), read-out: Area under the drug-time curve AUC0-24 h): 41.2 µM·h; Cmax ([3]; Oral (10 mg/kg), read-out: Maximum plasma drug concentration Cmax): 23.6 µM"
Cc1cnn(C)c1-c1cc(N2CCOC[C@H]2C)nc2c(-c3ccn[nH]3)ncc(F)c12 [Example 2],78,–,–,–
C[C@@H]1COCCN1c1cc(C2(C#N)CCOCC2)c2c(F)cnc(-c3ccn[nH]3)c2n1 [Example 3],61,4.52,93.2,–
C[C@@H]1COCCN1c1cc(-c2cnnn2C)c2c(F)cnc(-c3ccn[nH]3)c2n1 [Example 4],141,–,–,–
C[C@@H]1COCCN1c1cc(-c2ncnn2C)c2c(F)cnc(-c3ccn[nH]3)c2n1 [Example 6],395,–,–,–
CC(C)Oc1cc(N2CCOC[C@H]2C)nc2c(-c3ccn[nH]3)ncc(F)c12 [Example 8],181,3.79,75.9,–
C[C@@H]1COCCN1c1cc(C2CC2)c2c(F)cnc(-c3ccn[nH]3)c2n1 [Example 9],89,–,–,–
C[C@@H]1COCCN1c1cc(C2=CCOCC2)c2c(F)cnc(-c3ccn[nH]3)c2n1 [Example 10],82,–,–,–
C[C@@H]1COCCN1c1cc(C2CCOCC2)c2c(F)cnc(-c3ccn[nH]3)c2n1 [Example 11],59,–,–,–
C[C@@H]1COCCN1c1cc(C2(O)CCOCC2)c2c(F)cnc(-c3ccn[nH]3)c2n1 [Example 12],129,–,–,–
C[C@@H]1COCCN1c1cc(N2CCOCC2)c2c(F)cnc(-c3ccn[nH]3)c2n1 [Example 13],66,–,–,–
Cc1nn(C)cc1-c1cc(N2CCOC[C@H]2C)nc2c(-c3ccn[nH]3)ncc(F)c12 [Example 14],103,–,–,–
Cc1noc(C)c1-c1cc(N2CCOC[C@H]2C)nc2c(-c3ccn[nH]3)ncc(F)c12 [Example 15],182,–,–,–
Cc1cc(-c2cc(N3CCOC[C@H]3C)nc3c(-c4ccn[nH]4)ncc(F)c23)n(C)n1 [Example 16],31,12.3,97.5,–
Cc1n[nH]c(C)c1-c1cc(N2CCOC[C@H]2C)nc2c(-c3ccn[nH]3)ncc(F)c12 [Example 17],99,–,–,–
Cc1nnn(C)c1-c1cc(N2CCOC[C@H]2C)nc2c(-c3ccn[nH]3)ncc(F)c12 [Example 18],146,–,–,–
Cc1cnccc1-c1cc(N2CCOC[C@H]2C)nc2c(-c3ccn[nH]3)ncc(F)c12 [Example 20],41,6.34,95.5,–
Cc1ncccc1-c1cc(N2CCOC[C@H]2C)nc2c(-c3ccn[nH]3)ncc(F)c12 [Example 21],77,–,–,–
C[C@@H]1COCCN1c1cc(-c2ccncc2F)c2c(F)cnc(-c3ccn[nH]3)c2n1 [Example 22],80,–,–,–
C[C@@H]1COCCN1c1cc(-c2ccc(S(C)(=O)=O)cc2)c2c(F)cnc(-c3ccn[nH]3)c2n1 [Example 23],84,–,–,–
C[C@@H]1COCCN1c1cc(-c2ccnc3[nH]ccc23)c2c(F)cnc(-c3ccn[nH]3)c2n1 [Example 24],59,9.72,88,–
C[C@@H]1COCCN1c1cc(N2CCC3(CNC3)C2)c2c(F)cnc(-c3ccn[nH]3)c2n1 [Example 27],374,8.45,78.3,–
Cn1nccc1-c1cc(N2C3CCC2COC3)nc2c(-c3ccn[nH]3)ncc(F)c12 [Example 28],253,–,–,–
Cn1nccc1-c1cc(N2CC3CCC(C2)O3)nc2c(-c3ccn[nH]3)ncc(F)c12 [Example 29],475,5.34,64.5,–
